This passage reports fold change (FC) and EC50 results from ChEMBL document CHEMBL4725287, “An in silico mechanistic insight into HDAC8 activation facilitates the discovery of new small-molecule activators” (Bioorg Med Chem, 2020).

Assay [1] deals with T1, Histone deacetylase 8 (Homo sapiens) (UniProt Q9BY41).
T1 sequence (whole entry): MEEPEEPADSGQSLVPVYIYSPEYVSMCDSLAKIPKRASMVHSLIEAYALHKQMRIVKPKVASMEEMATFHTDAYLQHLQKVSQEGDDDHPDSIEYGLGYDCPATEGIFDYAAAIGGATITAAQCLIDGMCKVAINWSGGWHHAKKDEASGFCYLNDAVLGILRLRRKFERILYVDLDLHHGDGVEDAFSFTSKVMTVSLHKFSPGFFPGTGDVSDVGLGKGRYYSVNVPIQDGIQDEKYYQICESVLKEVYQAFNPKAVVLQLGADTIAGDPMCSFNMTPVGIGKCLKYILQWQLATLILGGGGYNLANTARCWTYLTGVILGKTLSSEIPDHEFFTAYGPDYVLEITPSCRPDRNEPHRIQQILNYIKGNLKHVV
In words: Substrate-dependent activation of HDAC8 (unknown origin) assessed as fold activation using FLUOR DE LYS as substrate at 20 uM incubated for 30 mins by fluorescence based assay relative to control. The settings on record: filed as activator.

The target of a further assay is T2, Histone deacetylase 8 (Homo sapiens, UniProt Q9BY41).
T2 sequence (Q9BY41 whole entry): T1 sequence (whole entry)
The assay is described as follows: Substrate-dependent activation of HDAC8 (unknown origin) using FLUOR DE LYS as substrate incubated for 30 mins by fluorescence based assay.

`Nc1ncccc1O`: the fold change (FC) in assay [1] was 1.3.
On the same count and under the same terms, under `O=C(O)c1cccnc1S` stands 1.3.
Turning to `Oc1ccccc1-c1nc2ccccc2s1`, the fold change (FC) in assay [1] is 1.3.
The same measure, in the same setting: in the case of `Sc1nc2ccccc2o1` it was 1.3.
Broadly, the EC50 is the midpoint of the concentration-response curve. The low end stands for greater potency, the high end for weaker potency. Turning to `Oc1cccc2cccnc12` [OXYQUINOLINE], the fold change (FC) in assay [1] amounted to 1.3. Besides, it took 11.1 µM to reach a half-maximal effect on Histone deacetylase 8 (EC50).
Turning to `O=C(O)c1ccccc1S` [THIOSALICYLIC ACID], the fold change (FC) in assay [1] was determined as 1.3. The molecule further returned a 50% effective concentration (EC50) at Histone deacetylase 8 of 16.9 µM.
